Patent publication US20250099448A1, “HETEROCYCLIC COMPOUNDS” (Hoffmann-La Roche Inc., priority 2022, published 2025)

Each compound was assayed against T1, MAGL protein (Homo sapiens, UniProt Q99685) (assay: 2-AG assay: MAGL inhibitory activity by hydrolysis of 2-arachidonoylglycerol to arachidonic acid, followed by mass spectrometry). Settings: 8 μM 2-arachidonoylglycerol, 15 min preincubation, 30 min reaction at RT, RapidFire MS readout.
T1 sequence (Q99685 1-303): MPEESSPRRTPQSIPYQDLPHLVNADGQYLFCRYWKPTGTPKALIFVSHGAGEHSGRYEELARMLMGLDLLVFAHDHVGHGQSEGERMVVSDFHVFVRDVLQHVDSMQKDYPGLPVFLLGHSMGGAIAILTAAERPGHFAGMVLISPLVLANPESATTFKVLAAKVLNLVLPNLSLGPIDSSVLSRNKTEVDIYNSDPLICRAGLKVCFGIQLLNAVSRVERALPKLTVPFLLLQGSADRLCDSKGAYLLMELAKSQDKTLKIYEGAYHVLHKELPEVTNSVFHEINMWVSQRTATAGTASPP
Assay type: biochemical
Summary of the method: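 MAGL was preincubated 15 min at RT with compound (12.5 to […], 3-fold steps) in 50 mM TRIS, 1 mM EDTA, 0.01% Tween-20, 2.5% DMSO. The reaction ran 30 min at RT with 8 μM 2-AG. Arachidonic acid was quantified by RapidFire SPE-MS/MS against a d8-arachidonic acid internal standard.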

Compound	IC50 [nM]
O=C(N1CCN(Cc2ccc(C(F)(F)F)nc2)CC1)N1CC2(CC(c3nnc(C4CC4)[nH]3)C2)C1 [Example 842]	133
NC(=O)C1CCCN1c1ccc(C2CN(C(=O)N3CC4(CC(c5nnc(C6CC6)[nH]5)C4)C3)C2)cc1 (stereo not shown) [compound 386]	246
O=C(N1CC2(CC(Cc3cnc(C(F)(F)F)cn3)C2)C1)N1CC2(CC(c3nc(C4(O)CC4)n[nH]3)C2)C1 [compound 4]	4.89
N#Cc1cnn(CC2CC3(C2)CN(C(=O)N2CC4(CC(c5nc(C6CC6)n[nH]5)C4)C2)C3)c1 [compound 801]	8.16
O=C(N1CC2(CCC(S(=O)(=O)c3cccc(C(F)(F)F)c3)CC2)C1)N1CC2(CC(c3nc(C4(O)CC4)n[nH]3)C2)C1 [compound 421]	50.4
O=C(N1CC(Oc2cccc(C3CC3)c2F)C1)N1CC2(CC(c3nnc(C4(O)CC4)[nH]3)C2)C1 [compound 322]	11.7
O=C(N1CC(OCc2ccc(S(=O)(=O)C(F)(F)F)cc2F)C1)N1CC2(CC(c3nc(C4(F)CC4)n[nH]3)C2)C1 [compound 470]	5.08
O=C(N1CC2(CC(Cn3cnc(C(F)(F)F)c3)C2)C1)N1CC2(CC(c3nnc(C4(O)CC4)[nH]3)C2)C1 [compound 64]	37.9
O=C(N1CC2(CC(Cc3nnc(C4(C(F)(F)F)CC4)o3)C2)C1)N1CC2(CC(c3nc(C4CC(F)(F)C4)n[nH]3)C2)C1 [compound 738]	328
O=C(N1CC2(CC(c3nnc(C4CC4)[nH]3)C2)C1)N1CC2(CN(Cc3ccc(C(F)(F)F)nn3)C2)C1 [compound 160]	61.3
O=C(N1CC(OCc2ccc(C(F)(F)F)cc2F)C1)N1CC2(CC(c3nnc(C4(O)CC4)[nH]3)C2)C1 [compound 324]	14.3
Cn1nc(C(F)(F)F)cc1CN1CC2(C1)CN(C(=O)N1CC3(CC(c4nc(C5CC5)n[nH]4)C3)C1)C2 [compound 650]	9.74
O=C(N1CC2(CC(Cc3ccc(C(F)(F)F)cn3)C2)C1)N1CC2(CC(c3ncn[nH]3)C2)C1 [compound 987]	2060
Cc1nc(C)c(CN2CC3(C2)CN(C(=O)N2CC4(CC(c5nnc(C6CC6)[nH]5)C4)C2)C3)o1 [compound 898]	218
O=C(N1CC2(CC(c3nnc(C4CC4)[nH]3)C2)C1)N1CC2(C1)CN(S(=O)(=O)C13CC(C(F)(F)F)(C1)C3)C2 [compound 135]	25.3
O=C(N1CC2(CCC(Cc3nnc(C(F)(F)F)[nH]3)CC2)C1)N1CC2(CC(c3nc(C4CC4)n[nH]3)C2)C1 [compound 436]	32.3

Compound	IC50 [nM]
O=C(N1CC2(CC(c3nc(C4CC4)n[nH]3)C2)C1)N1CC2(CN(Cc3cc(C4CCC4)[nH]n3)C2)C1 [compound 614]	5.49
O=C(N1CC(n2cc(OCC(F)(F)F)cn2)C1)N1CC2(CC(c3nnc(C4CC4)[nH]3)C2)C1 [compound 207]	60.3
O=C(N1CC(Oc2ccc(Cl)c(C3CC3)c2)C1)N1CC2(CC(c3nnc(C4(O)CC4)[nH]3)C2)C1 [compound 325]	14.7
CS(=O)(=O)c1cc(Cl)ccc1CC1CC2(CCN(C(=O)N3CC4(CC(c5nnc(C6CC6)[nH]5)C4)C3)C2)C1 (stereo not shown) [Example 414, [2-(4-chloro-2-mesyl-benzyl)-6-azaspiro[3.4]octan-6-yl]-[6-(5-cyclopropyl-4H-1,2,4-triazol-3-yl)-2-azaspiro[3.3]heptan-2-yl]methanone]	38.1
Cn1ncc(P(C)(C)=O)c1CN1CC2(C1)CN(C(=O)N1CC3(CC(c4nc(C5CC5)n[nH]4)C3)C1)C2 [compound 838]	102
O=C(N1CC(CNS(=O)(=O)c2ccc(C(F)(F)F)cc2)C1)N1CC2(CC(c3nnc(C4(O)CC4)[nH]3)C2)C1 [compound 210]	482
O=C(N1CC2(CC(c3nc(C4CC4)n[nH]3)C2)C1)N1CC2(CC(c3nc(C4CC4)n[nH]3)C2)C1 [compound 407]	9.24
O=C(N1CC(NCc2ccc(OC(F)(F)F)cc2F)C1)N1CC2(CC(c3nnc(C4CC4)[nH]3)C2)C1 [compound 189]	38.6
O=C(N1CC(c2cnc(C3(C(F)(F)F)CC3)cn2)C1)N1CC2(CC(c3nnc(C4CC4)[nH]3)C2)C1 [compound 233]	13.8
CS(=O)(=O)c1cccc(CN2CCC3(CC2)CN(C(=O)N2CC4(CC(c5nnc(C6CC6)[nH]5)C4)C2)C3)c1 [compound 181]	36.2
O=C(N1CC2(CC(c3nc(C4CC(F)(F)C4)n[nH]3)C2)C1)N1CC2(CN(Cc3sncc3C(F)(F)F)C2)C1 [compound 655]	557
O=C(N1C[C@H]2CN(Cc3ccccc3)C[C@H]2C1)N1CC2(CC(c3nnc(C4CC4)[nH]3)C2)C1 [compound 363]	244
CC(C)(C)CS(=O)(=O)N1CC2(CN(C(=O)N3CC4(CC(c5nnc(C6CC6)[nH]5)C4)C3)C2)C1 [compound 212]	58.1
O=C(N1CC2(CC(Cc3cnc(C(F)(F)F)nc3)C2)C1)N1CC2(CC(c3nnc(C4(O)CC4)[nH]3)C2)C1 [compound 21]	5.33
CS(=O)(=O)c1ccc(CC2CC3(C2)CN(C(=O)N2CC4(CC(c5nc(C6COC6)n[nH]5)C4)C2)C3)cc1 [compound 817]	180
N#Cc1cc(F)ccc1C12CC(C3CN(C(=O)N4CC5(CC(c6nc(C7(O)CC7)n[nH]6)C5)C4)C3)(C1)C2 [compound 509]	5.16

The next compounds have a lower IC50 than those just listed; values first:

IC50 [nM]	Compound
0.84	O=C(N1CC2(CCC(Cc3ncc(F)cc3F)CC2)C1)N1CC2(CC(c3nnc(C4CC4)[nH]3)C2)C1 [compound 142]
0.92	O=C(N1CC2(CC(Cc3ccc(OC(F)(F)F)nc3)C2)C1)N1CC2(CC(c3nc(C4CC4)n[nH]3)C2)C1 [compound 501]
0.03	COC(=O)c1ccc(CC2CC3(C2)CN(C(=O)N2CC4(CC(c5nc(C6CC6)n[nH]5)C4)C2)C3)cc1OC(F)(F)F [compound 911]
0.11	O=C(N1CC(c2ccc(C3(C(F)(F)F)CC3)cc2)C1)N1CC2(CC(c3nnc(C4CC4)[nH]3)C2)C1 [compound 226]
0.51	O=C(N1CC(C23CC(NCC4(C(F)(F)F)CC4)(C2)C3)C1)N1CC2(CC(c3nc(C4(F)CC4)n[nH]3)C2)C1 [compound 578]
0.1	O=C(N1CC2(CC(Cc3ncc(F)cc3Cl)C2)C1)N1CC2(CC(c3nnc(C4CC4)[nH]3)C2)C1 [compound 117]
2.4	O=C(N1CC(C23CC(C(F)(F)c4ccc(C(F)(F)F)cc4)(C2)C3)C1)N1CC2(CC(c3nc(C4CC4)n[nH]3)C2)C1 [compound 798]
1.41	O=C(N1CC(c2ccc(C3(CO)CC3)cc2)C1)N1CC2(CC(c3nnc(C4CC4)[nH]3)C2)C1 [compound 295]
0.66	CC(C)c1cc(C(C)C)n(-c2ccc(C3CN(C(=O)N4CC5(CC(c6nc(C7(O)CC7)n[nH]6)C5)C4)C3)cc2)n1 [compound 751]
0.78	O=C(N1CC(c2ccc(NCC3(C(F)(F)F)CC3)cn2)C1)N1CC2(CC(c3nnc(C4CC4)[nH]3)C2)C1 [compound 256]
3.76	NC(=O)C1CC(F)(F)CCN1c1ccc(C2CN(C(=O)N3CC4(CC(c5nnc(C6CC6)[nH]5)C4)C3)C2)cc1 (stereo not shown) [compound 385]
1.05	O=C(N1CC(C23CC(Cn4cc(C(F)(F)F)ccc4=O)(C2)C3)C1)N1CC2(CC(c3nc(C4CC4)n[nH]3)C2)C1 [compound 946]
0.57	COc1cc(F)cc(C23CC(C4CN(C(=O)N5CC6(CC(c7nc(C8CC8)n[nH]7)C6)C5)C4)(C2)C3)c1 [compound 705]
0.6	Cn1ncc(CC2CC3(C2)CN(C(=O)N2CC4(CC(c5nc(C6(O)CC6)n[nH]5)C4)C2)C3)c1C(F)(F)F [compound 815]
3.64	CC(C)(C)c1conc1CN1CC2(C1)CN(C(=O)N1CC3(CC(c4nc(C5CC5)n[nH]4)C3)C1)C2 [compound 591]
0.27	O=C(N1CC2(CC(Cn3nccc3C3CC3)C2)C1)N1CC2(CC(c3nc(C4CC4)n[nH]3)C2)C1 [compound 973]
0.16	Cn1ncc(C(F)(F)F)c1CC1CC2(C1)CN(C(=O)N1CC3(CC(c4nc(C5CC5)n[nH]4)C3)C1)C2 [compound 691]
0.94	O=C(N1CC(c2ccc(NC3(C(F)(F)F)CC3)nc2)C1)N1CC2(CC(c3nnc(C4CC4)[nH]3)C2)C1 [Example 1, [6-(5-cyclopropyl-4H-1,2,4-triazol-3-yl)-2-azaspiro[3.3]heptan-2-yl]-[3-[6-[[1-(trifluoromethyl)cyclopropyl]amino]-3-pyridyl]azetidin-1-yl]methanone]
0.15	O=C(N1CC2(CC(Cc3ccc(C(F)(F)F)cn3)C2)C1)N1CC2(CC(c3nc(C4(F)CC4)n[nH]3)C2)C1 [compound 517]
0.68	O=C(N1CC(c2cnc(NCC3(C(F)(F)F)CC3)cn2)C1)N1CC2(CC(c3nnc(C4CC4)[nH]3)C2)C1 [compound 255]
1.06	CS(=N)(=O)c1cc(C(F)(F)F)ccc1CC1CC2(C1)CN(C(=O)N1CC3(CC(c4nc(C5CC5)n[nH]4)C3)C1)C2 (stereo not shown) [compound 481]
0.2	CS(=O)(=O)c1cc(Cl)ccc1C12CC(C3CN(C(=O)N4CC5(CC(c6nnc(C7CC7)[nH]6)C5)C4)C3)(C1)C2 [compound 562]
0.34	O=C(N1CC2(CC(c3ccc(S(=O)(=O)C(F)(F)F)cc3)C2)C1)N1CC2(CC(c3nnc(C4CC4)[nH]3)C2)C1 [compound 413]
2.01	N=S(=O)(c1ccc(OC2CC3(C2)CN(C(=O)N2CC4(CC(c5nc(C6CC6)n[nH]5)C4)C2)C3)cc1)C(F)(F)F (stereo not shown) [compound 730]
2.79	O=C(N1CC2(CC(Oc3ccc(C(F)(F)F)nc3)C2)C1)N1CC2(CC(c3nnc(C4CC4)[nH]3)C2)C1 [compound 131]
0.39	Cc1cc(C(F)F)n(CC2CC3(C2)CN(C(=O)N2CC4(CC(c5nc(C6CC6)n[nH]5)C4)C2)C3)n1 [compound 883]
